Measurements taken from paper PMC6856805, “Environmental Risk Assessment for the Active Pharmaceutical Ingredient Mycophenolic Acid in European Surface Waters” (Environmental Toxicology and Chemistry, 2019).

Assays:
D. magna = tested on: D. magna; design: method as in FASS 2018; details: OECD 202; ref FASS 2018; cited from earlier work
[1] = design: method as in FASS 2018; details: OECD 209; ref FASS 2018; cited from earlier work
Cyprinus carpio = tested on: Cyprinus carpio; design: method as in FASS 2018; details: OECD 203; ref FASS 2018; cited from earlier work
[2] = OECD test guideline 314B activated sludge biodegradation simulation test
Source text: Mineralization comprises evolved CO2 (detected in the traps) as well as CO2 dissolved in the sludge. The latter was highest at day 2 and decreased afterward, whereas the amount of evolved CO2 increased continuously until the end of the study. […] At no time point was a noteworthy amount of radioactivity (>2% iRR throughout the test period) detected in the liquor after extraction. Radioactivity in the solids extract was highest at day 0 (5.5% iRR) and decreased afterward to 0.3% iRR after 28 d.
Based on this k biodeg and physicochemical properties for MPA, SimpleTreat 4.0 (Struijs 2015) calculated a removal of 12% in STPs, mostly through biodegradation (0.27% in the primary settler and 11.5% in the aeration tank), with a small fraction of 0.13% adsorbed to sludge, in agreement with the OECD test guideline106 (Organisation for Economic Co‐operation and Development 2000) adsorption results mentioned in the previous paragraph (V. Halász‐Laky, unpublished data). […] A high degradation rate is supported by data from Franquet‐Griell et al. (2017b), who measured STP influents and effluents and compared solid phase extraction and macroporous ceramic passive samplers in Spain. […]

[3] = River sediment/water fate test (US FDA Guideline 3.11) with 14C-MPM; details: all systems and dosings
Experimental: A river sediment/water fate test with two different ^14C-MPMs (one carboxyl-^14C-labelled, the other morpholine-^14C-labelled) was commissioned in 1994 by Syntex according to US FDA Guideline 3.11 in compliance with GLP (Yan 1995). Both carboxyl-^14C-labelled and morpholine-^14C-labelled MPM were tested separately for biodegradability in river water and sediment at dosing concentrations of 1 and 5 mg MPM/L, in parallel test set-ups in the dark at 21±1 °C over 64 days. Air was drawn in flow-through systems first through a 2 N KOH vessel to remove natural CO2, then through the test vessel and subsequently through two sequential 2 N KOH traps for ^14CO2 capture. Samples from the latter traps were taken for duplicate ^14CO2 analysis by LSC on days 1, 2, 3, 7, 14, 21, 28, 35, 49 and 64. Test medium samples for HPLC analysis were taken on days 0.01 (15 min after dosing), 1, 3, 7, 14, 21, 35, 49 and 64. Sediment samples were taken at the end for combustion and ^14CO2 analysis.

rats [4] = details: cited from earlier work
rats [5] = tested on: rats; design: method as in T. Pfister, unpublished data; details: oral, ref T. Pfister, unpublished data; cited from earlier work
rats [6] = tested on: rats; design: method as in T. Pfister, unpublished data; details: at least 104 wk at 3, 7, or 15 mg/kg body weight/d, ref T. Pfister, unpublished data; cited from earlier work
rat = details: in vivo, po; cited from earlier work
[7] = tested on: lymphocyte and erythrocyte systems; design: method as in T. Pfister, unpublished data; details: ref T. Pfister, unpublished data; cited from earlier work
rabbits = tested on: rabbits; design: method as in T. Pfister, unpublished data; details: oral, ref T. Pfister, unpublished data; cited from earlier work
[8] = tested on: mice with large cell lymphoma; design: method as in T. Pfister, unpublished data; details: ref T. Pfister, unpublished data; cited from earlier work
mice = tested on: mice; design: method as in T. Pfister, unpublished data; details: oral, 104 wk at 25, 75, or 180 mg/kg body weight/d, ref T. Pfister, unpublished data; cited from earlier work
humans = experiment: Derivation of acceptable daily exposure (ADE); design: species or system human
Experimental: Similarly, potential risk for humans from secondary poisoning is assessed by using the acceptable daily exposure (ADE) value for MPA (T. Pfister, unpublished data), which considers toxicological data as well as human experience and covers all routes of uptake, including sensitive subpopulations, over 365 d/annum, with the combined worst‐case uptake through drinking water and fish. No removal of MPA in drinking water production is assumed, but a default intake of 2 L water and 115 g fish/person and day is assumed (European Commission 2011; Murray‐Smith et al. 2012). This combined uptake is then compared with the ADE.
The ADE was derived based on the available nonclinical and clinical data, with the critical effects identified as 1) immunosuppression and secondary effects thereof and 2) teratogenicity; in addition, the relevance of positive results in genotoxicity tests was assessed (T. Pfister, unpublished data). Based on the NOAEL of 2 mg/kg body weight/d in the 12‐mo oral toxicity study in the rat, an ADE was derived by multiplying this NOAEL by a default body weight of 60 kg for humans and dividing by adjustment factors, namely, 6.2 for extrapolation from rats to humans, 10 for variability between individuals, 1 for study duration of 1 yr for rodents, 5 for severity of systemic toxicity (hematopoiesis, immunotoxicity), and 3 for use of an established NOAEL instead of an NOEL; this derivation results in a first ADE of 0.1 mg MPM/60‐kg person/d. […] The weak clastogenic potential observed at higher doses was considered to be irrelevant at these exposure levels. Because the first ADE was lower than, and therefore also protective of, the second, 0.1 mg MPM/60‐kg person/d was selected as the ADE. Stoichiometrically, this ADE for MPM corresponds to 0.0739 mg MPA/d, which was rounded to 0.075 mg or 75 µg MPA/d. The MTDI for an otter was derived by normalizing the ADE for a 60‐kg human to the otter with a default body mass of 10 kg, resulting in an MTDI of 0.0125 mg or 12.5 µg MPA/10‐kg otter/d.

[9] = design: method as in T. Pfister, unpublished data; details: ref T. Pfister, unpublished data, cited from earlier work
[10] = OECD test guideline 301F ready biodegradability test
[11] = design: method as in Lee et al. 1990; Shipkova et al. 2005; details: in the liver and intestine; ref Lee et al. 1990; Shipkova et al. 2005; cited from earlier work

For COc1c(C)c2c(c(O)c1C/C=C(\C)CCC(=O)[O-])C(=O)OC2.[Na+] [sodium‐MPA], the “acute daphnid EC50” value (D. magna) is listed as over 100 µg/mL, the “3‐h EC50, respiration inhibition” value [1] is listed as 2213 µg/mL and the “EC10, respiration inhibition” value [1] is listed as 69 µg/mL. For the same compound, the “acute fish 50% lethal concentration (LC50)” value (Cyprinus carpio) was over 100 µg/mL.
With COc1c(C)c2c(c(O)c1C/C=C(\C)CCC(=O)O)C(=O)OC2 [^14C‐MPA, Mycophenolic acid, [carboxyl‐14C]] the “degradation in activated sludge” value [2] was over 80%.
In the case of COc1c(C)c2c(c(O)c1C/C=C(\C)CCC(=O)OCCN1CCOCC1)C(=O)OC2 [MPM, mycophenolate mofetil], the “time to full primary degradation” value [3] is listed as at most 7 days, the “dose causing malformations in the pups in the absence of maternal toxicity” value (rats [4]; highest dose, oral, rats, ref T. Pfister, unpublished data) is listed as 4.5 mg/kg body weight/d and the “NOAEL, female fertility and reproduction study” value (rats [4]; rat, in vivo, po) is listed as 1.5 mg/kg body weight/d. The effect on fertility (rats [4]; rats, oral, ref T. Pfister, unpublished data) was “no effect on fertility”, the “no‐observed‐effect level (NOEL) for teratogenic changes” value (rats [5]) was 2 mg/kg body weight/d and the carcinogenicity (rats [6]) was “not carcinogenic”. For the same compound, the “no‐observed‐adverse‐effect level (NOAEL)” value (rat) was 2 mg/kg body weight/d, the “in vitro antitumour effects” value [7] was “in vitro antitumour effects” and the “no‐observed‐effect level (NOEL) for teratogenic changes” value (rabbits) was 30 mg/kg body weight/d. For the same compound, the survival times [8] was “prolonged survival times”, the carcinogenicity (mice) was “not carcinogenic” and the “first ADE (selected as the ADE)” value (humans; from rat 12‐mo NOAEL) was 0.1 mg MPM/60‐kg person/d. For the same compound, the “second ADE” value (humans; from rat teratogenicity NOEL) was 0.19 mg MPM/60‐kg person/d, the clastogenicity ([9]; extended exposure, only at highly cytotoxic dose levels) was “possesses a clastogenic potential” and the “point mutations or primary DNA damage” value ([9]; presence or absence of metabolic activation) was “did not induce point mutations or primary DNA damage”. The “inhibition of activated sludge activity” value ([10]; nominal 100 mg MPM/L) was “no inhibition”, the ready biodegradability result ([10]; nominal 100 mg/L) was “primary degradation by HPLC without oxygen uptake” and the hydrolysis of prodrug [11] was “rapidly and fully hydrolyzed to MPA”.
